Measurements: patent US20060252683A1, “Preparation of a peptide compound (SYRAPRO-2000) and its use for the activation of protein phosphatase-2A1 enzyme” (priority 2005, published 2006)

Assays:
[1] = biological target: T1, protein phosphatase-2A1 (Homo sapiens, UniProt P67775); test: Assay of purified protein phosphatase-2A1 in vitro with 32P-labeled phosphorylase a as substrate; type: biochemical; parameters: Protein phosphatase-2A1 purified from CD^4+ T cells as described in materials and method; endogenous in cells; host or cells: Jurkat cells; enzyme purified by DEAE Sepharose, Sephacryl S-300 HR and poly-L-lysine Agarose; settings: highly purified enzyme from Jurkat cells
Protocol: Protein phosphatase-2A1 purified from CD^4+ T cells as described in materials and method was assayed in the presence of various concentrations of SYRAPRO-2000. 100 percent protein phosphatase-2A1 activity is equivalent to 0.005 unit. Similar result were obtained in 3 independent experiments.
The effect of synthesized SYRAPRO-2000 on purified protein phosphatase-2A1 can be determined in vitro. Protein phosphatase-2A1 can be assayed using ^32P-labeled phosphorylase a as substrate in the presence of various concentrations of SYRAPRO-2000. Protein phosphatase-2A1 is activated in the presence of SYRAPRO-2000.
Protein phosphatase-1 was assayed as described in (Cohen 1988). Protein phosphatase-2B was assayed as described in (Tung 1986). Protein phosphatase-2C was assayed as described in (Tung 1986) except Ca^2+ and calmodulin were omitted. The assay of protein phosphatases-2A1 consisted of 0.02 ml of enzyme solution in 50 mM Imidazole-Cl pH 7.2, 0.2 mM EGTA, 0.1% (v/v) 2-mercaptoethanol and 1 mg/ml bovine serum albumin (Assay Buffer), 0.01 ml of inhibitor-2 at 600 nM in Assay Buffer, 0.01 ml of protamine at 60 μg/ml in Assay Buffer or 0.01 ml of SYRAPRO-2000 at different concentrations in Assay Buffer or 0.01 ml of Assay Buffer alone, 0.02 ml of ^32P-labeled phosphorylase a at 3 mg/ml in Assay Buffer containing 15 mM caffeine. The assay components were preincubated for 10 minutes prior to initiating the reaction with ^32P-labeled phosphorylase a. One unit of protein phosphatase activity is that amount of enzyme which catalyzes the release of 1 nmol of phosphate from ^32P-labeled substrate per min at 30° C.
Jurkat cells, a human transformed CD^4+ T cell line, were grown in grown in RPMI 1680 supplemented with 5% (v/v) fetal bovine serum at 37° C. in 95% air/5% CO2 in a humidified incubator. 2.4 liters of cells were collected by centrifugation at 4200 rpm in a low speed centrifuge for 10 minutes. The cells were homogenized in 80 ml of 50 mM Imidazole-Cl pH 7.2, 2 mM EGTA, 2 mM EDTA, 0.1% (v/v) 2-mercaptoethanol, 0.2 mM PMSF, 1 mM benzamidine, 4 μg/ml aprotinin, 4 μg/ml leupeptin, 4 μg/ml pepstatin, 0.1 mM TLCK, 0.1 mM TPCK, 1 mM sodium orthovanadate and 10% (v/v) glycerol by 40 strokes in a glass hand held homogenizer. The homogenate was centrifuged at 29000 rpm in a high speed centrifuge for 30 minutes. The supernatant (i.e the extract) was collected and loaded onto a DEAE Sepharose column (1.5×6 cm) equilibrated in 25 mM Imidazole-Cl pH 7.2, 0.2 mM EGTA, 0.1% (v/v) 2-mercaptoethanol, 0.1 mM PMSF, 1 mM benzamidine and 10% (v/v) glycerol (Buffer A). The column was washed with 50 ml of Buffer and then eluted with a 200 ml linear gradient of Buffer A to Buffer A plus 0.4 M NaCl. The eluted fractions were then assayed for phosphorylase phosphatase activity in the presence of 100 nM inhibitor-2 and 10 μg/ml of protamine. Two major peaks of phosphorylase phosphatase were observed. The first and second peak represent protein phosphatase-2A0 and protein phosphatase-2A1 respectively. […] The major activity eluting as a species of apparent molecular mass 300 kDa was collected, diluted four fold in Buffer A and loaded onto a poly-L-lysine Agarose Column (1.5×4 cm) equilibrated in Buffer A. The column was washed with 50 ml of Buffer A and then eluted with a 200 ml linear gradient of Buffer A to Buffer A plus 0.5 M NaCl. The active fractions eluting at ˜0.30 M NaCl salt concentration was pooled, concentrated by vacuum dialysis and stored at ^−20° C. in 50 mM Imidazole-Cl pH 7.2, 0.2 mM EGTA in the presence of 50% (v/v) glycerol. The highly purified enzyme consisted of the characteristic subunits of protein phosphatase-2A1, namely the A, B and C subunits. […] It is difficult to determine the activity of protein phosphatase-2A1 in CD^4+ T cell extract. However, assuming that it represented about 66 percent of total type 2A protein phosphatase activity in CD^4+ T cell extract, the specific activity of the enzyme in extract was estimated to be 0.3 unit/mg. […]
Target sequence in this assay (P67775 whole entry): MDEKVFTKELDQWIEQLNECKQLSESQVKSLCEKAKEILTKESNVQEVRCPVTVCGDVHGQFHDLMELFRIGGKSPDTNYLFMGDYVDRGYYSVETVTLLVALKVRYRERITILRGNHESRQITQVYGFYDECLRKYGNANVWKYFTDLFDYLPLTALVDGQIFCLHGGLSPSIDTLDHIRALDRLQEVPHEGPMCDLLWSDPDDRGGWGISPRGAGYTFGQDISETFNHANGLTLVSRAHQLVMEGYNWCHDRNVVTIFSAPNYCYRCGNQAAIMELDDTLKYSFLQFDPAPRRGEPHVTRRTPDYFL
Target sequence in this assay (P30153 whole entry partner): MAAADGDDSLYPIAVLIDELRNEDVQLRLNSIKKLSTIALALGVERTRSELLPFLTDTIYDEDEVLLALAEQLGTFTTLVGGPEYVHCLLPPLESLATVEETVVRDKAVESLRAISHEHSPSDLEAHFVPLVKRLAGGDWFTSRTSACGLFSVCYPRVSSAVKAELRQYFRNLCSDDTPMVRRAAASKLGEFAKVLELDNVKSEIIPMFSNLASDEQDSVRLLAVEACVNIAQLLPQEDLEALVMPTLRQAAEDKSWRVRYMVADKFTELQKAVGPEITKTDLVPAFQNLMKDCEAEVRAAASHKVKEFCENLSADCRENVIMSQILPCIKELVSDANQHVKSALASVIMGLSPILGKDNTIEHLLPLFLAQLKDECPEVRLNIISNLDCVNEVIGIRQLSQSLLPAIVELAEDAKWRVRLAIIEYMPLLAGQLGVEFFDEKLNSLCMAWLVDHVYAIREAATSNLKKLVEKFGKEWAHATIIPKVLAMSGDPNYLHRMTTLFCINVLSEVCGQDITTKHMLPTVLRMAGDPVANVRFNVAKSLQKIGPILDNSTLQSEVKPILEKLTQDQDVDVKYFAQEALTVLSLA
Target sequence in this assay (P63151 whole entry partner): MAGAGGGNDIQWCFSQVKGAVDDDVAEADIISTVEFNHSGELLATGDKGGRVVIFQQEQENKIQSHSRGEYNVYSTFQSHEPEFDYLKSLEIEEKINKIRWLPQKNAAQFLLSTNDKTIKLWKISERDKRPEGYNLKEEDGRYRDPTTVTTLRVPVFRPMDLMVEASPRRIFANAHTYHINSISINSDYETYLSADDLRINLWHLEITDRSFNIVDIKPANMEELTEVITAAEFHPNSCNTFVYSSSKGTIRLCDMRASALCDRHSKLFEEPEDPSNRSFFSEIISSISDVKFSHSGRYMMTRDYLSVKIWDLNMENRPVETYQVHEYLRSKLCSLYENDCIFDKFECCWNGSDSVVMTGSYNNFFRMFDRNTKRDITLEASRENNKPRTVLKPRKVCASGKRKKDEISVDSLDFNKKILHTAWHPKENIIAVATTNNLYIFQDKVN

[2] = biological target: T1, protein phosphatase-2A1; settings: Tung 1997; Janoo 2005; cited from earlier work
Target sequence in this assay (P67775 whole entry): as the sequence (P67775 whole entry) above

effect on protein phosphatase-2A1 from CD4+ T cells [1]	Molecule	activation of protein phosphatase-2A1 [2]
activated	protamine [reference compound]	
not inhibited	inhibitor-2: Protein phosphatase-1 inhibitor-2 purified from rabbit skeletal muscle (protein, UniProt P11845 2-205, looked up) Protein phosphatase inhibitor …: AASTASHRPIKGILKNKTSSTSSRVASAEQPRGSVDEELSKKSQKWDEMNILATYHPADKDYGLMKIDEPSTPYHSMIGDDDDAYSDTETTEAMTPDTLAKKLAAAEGSEPKYRIREQESSGEEDSDLSPEEREKKRQFEMKRKLHYNEGLNIKLARQLISKDLHDDEEDEEMSETADGESMNTEESNQGSTPSDQRQNKSQSS	

The next lines start with the molecule.

Molecule	effect on protein phosphatase-2A1 from CD4+ T cells [1]	activation of protein phosphatase-2A1 [2]
C=C1[C@@H](O)[C@@H]2O[C@]3(CC[C@H](/C=C/[C@@H](C)[C@@H]4CC(C)=C[C@@]5(O[C@H](C[C@@](C)(O)C(=O)O)CC[C@H]5O)O4)O3)CC[C@H]2O[C@@H]1[C@@H](O)C[C@H](C)[C@H]1O[C@@]2(CCCCO2)CC[C@H]1C [okadaic acid, reference compound]	inhibited	
full length HIV-1 Vpr: full length HIV-1 Vpr protein, tested in the literature		not to activate
